Assay results from patent US10286063B2 (priority 2015, dated 2019).

Test system: PBMC
Type: cell-based, human

Sequence: RGILKRNSSSSSTDS [Peptide 5-HUMAN-B, reference compound]
- % Inhibition by HLA-DR blocking Ab: 100%
